Results published in ChEMBL document CHEMBL1201862, “PubChem BioAssay data set” (2004).
Counter-ions that a name gives are not always drawn.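 Briefly, cells in 96-well plates were exposed to five compound concentrations for 48 h, and endpoints were estimated by linear interpolation. GI50 is the concentration that inhibits growth by half.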 Activity calls are given as the source filed them. Cut-off read from the data, not from the text of the source: active = GI50 up to about 1.1 µM and inactive = higher.

Columns and labels:
Assay in all cases: growth of human tumour cells (NCI), 48 h
SNB-19 = tested on: SNB-19
MOLT-4 = tested on: MOLT-4
T47D = tested on: T47D
NCI-H23 = tested on: NCI-H23
SF-539 = tested on: SF-539
NCI-H460 = tested on: NCI-H460
786-0 = tested on: 786-0
OVCAR-3 = tested on: OVCAR-3
PC-3 = tested on: PC-3
SNB-75 = tested on: SNB-75
UACC-62 = tested on: UACC-62
A549 = tested on: A549
SK-OV-3 = tested on: SK-OV-3
M14 = tested on: M14
NCI-H226 = tested on: NCI-H226
KM12 = tested on: KM12
OVCAR-8 = tested on: OVCAR-8
UACC-257 = tested on: UACC-257
EKVX = tested on: EKVX
SN12C = tested on: SN12C

## NCCCCN [PUTRESCINE HYDROCHLORIDE]
SNB-19
  GI50: > 100 µM (inactive)
MOLT-4
  GI50: > 100 µM (inactive)
T47D
  GI50: > 100 µM (inactive)
NCI-H23
  GI50: > 100 µM (inactive)
SF-539
  GI50: > 100 µM (inactive)
NCI-H460
  GI50: > 100 µM (inactive)
786-0
  GI50: > 100 µM (inactive)
OVCAR-3
  GI50: > 100 µM (inactive)
PC-3
  GI50: > 100 µM (inactive)
SNB-75
  GI50: > 100 µM (inactive)
UACC-62
  GI50: > 100 µM (inactive)
A549
  GI50: > 100 µM (inactive)
SK-OV-3
  GI50: > 100 µM (inactive)
M14
  GI50: > 100 µM (inactive)
NCI-H226
  GI50: > 100 µM (inactive)
KM12
  GI50: 16.3 µM (inactive)
OVCAR-8
  GI50: > 100 µM (inactive)
UACC-257
  GI50: > 100 µM (inactive)
EKVX
  GI50: > 100 µM (inactive)

## CCOc1ccc(N/C(=C(/C(Cl)=C(/Cl)N2CCCCC2)[N+](=O)[O-])n2nnc3ccccc32)cc1
SNB-19
  GI50: 19.9 µM (inactive)
MOLT-4
  GI50: 5.27 µM (inactive)
T47D
  GI50: 17.3 µM (inactive)
NCI-H23
  GI50: 15.3 µM (inactive)
SF-539
  GI50: 16.4 µM (inactive)
NCI-H460
  GI50: 22.2 µM (inactive)
786-0
  GI50: 18.7 µM (inactive)
OVCAR-3
  GI50: 17.4 µM (inactive)
PC-3
  GI50: 11.6 µM (inactive)
SN12C
  GI50: 19.3 µM (inactive)
SNB-75
  GI50: 19.9 µM (inactive)
UACC-62
  GI50: 14.4 µM (inactive)
A549
  GI50: 21.5 µM (inactive)
SK-OV-3
  GI50: 28.9 µM (inactive)
M14
  GI50: 14.9 µM (inactive)
NCI-H226
  GI50: 27.9 µM (inactive)
KM12
  GI50: 14.2 µM (inactive)
UACC-257
  GI50: 16.9 µM (inactive)
EKVX
  GI50: 19.3 µM (inactive)

## [N-]=[N+]=Nc1c(N2CCOCC2)c(Cl)nc2ccccc12
SNB-19
  GI50: > 100 µM (inactive)
MOLT-4
  GI50: 65.2 µM (inactive)
T47D
  GI50: 65.6 µM (inactive)
NCI-H23
  GI50: 30.7 µM (inactive)
SF-539
  GI50: 65.5 µM (inactive)
NCI-H460
  GI50: 28.8 µM (inactive)
786-0
  GI50: 86.7 µM (inactive)
OVCAR-3
  GI50: 43.5 µM (inactive)
PC-3
  GI50: 34.2 µM (inactive)
SN12C
  GI50: 47.8 µM (inactive)
SNB-75
  GI50: < 0.01 µM (active)
A549
  GI50: 51.2 µM (inactive)
SK-OV-3
  GI50: > 100 µM (inactive)
M14
  GI50: 37.4 µM (inactive)
NCI-H226
  GI50: 30.3 µM (inactive)
KM12
  GI50: 27 µM (inactive)
OVCAR-8
  GI50: 35.2 µM (inactive)
UACC-257
  GI50: 27.9 µM (inactive)
EKVX
  GI50: 9.55 µM (inactive)

## O=C1/C(=C/c2ccco2)N=C2Sc3c([nH]cnc3=O)N12
SNB-19
  GI50: > 100 µM (inactive)
MOLT-4
  GI50: > 100 µM (inactive)
T47D
  GI50: > 100 µM (inactive)
NCI-H23
  GI50: > 100 µM (inactive)
SF-539
  GI50: > 100 µM (inactive)
786-0
  GI50: > 100 µM (inactive)
OVCAR-3
  GI50: > 100 µM (inactive)
PC-3
  GI50: > 100 µM (inactive)
SN12C
  GI50: > 100 µM (inactive)
SNB-75
  GI50: > 100 µM (inactive)
A549
  GI50: > 100 µM (inactive)
SK-OV-3
  GI50: > 100 µM (inactive)
M14
  GI50: > 100 µM (inactive)
NCI-H226
  GI50: > 100 µM (inactive)
KM12
  GI50: > 100 µM (inactive)
OVCAR-8
  GI50: > 100 µM (inactive)
UACC-257
  GI50: > 100 µM (inactive)
EKVX
  GI50: > 100 µM (inactive)

## O=[N+]([O-])c1ccc2sc(/C=N/c3ccccn3)cc2c1
SNB-19
  GI50: > 100 µM (inactive)
MOLT-4
  GI50: 19.7 µM (inactive)
T47D
  GI50: 26 µM (inactive)
NCI-H23
  GI50: 98.2 µM (inactive)
SF-539
  GI50: > 100 µM (inactive)
NCI-H460
  GI50: > 100 µM (inactive)
786-0
  GI50: > 100 µM (inactive)
OVCAR-3
  GI50: 41.8 µM (inactive)
PC-3
  GI50: 69.5 µM (inactive)
SN12C
  GI50: 88.7 µM (inactive)
SNB-75
  GI50: > 100 µM (inactive)
UACC-62
  GI50: 99.1 µM (inactive)
A549
  GI50: > 100 µM (inactive)
SK-OV-3
  GI50: > 100 µM (inactive)
M14
  GI50: > 100 µM (inactive)
KM12
  GI50: 64.6 µM (inactive)
OVCAR-8
  GI50: 35.2 µM (inactive)
UACC-257
  GI50: 99.8 µM (inactive)
EKVX
  GI50: 69 µM (inactive)

## c1ccc(-c2ccc(/N=N/N3CCCC3)cc2)cc1
SNB-19
  GI50: > 100 µM (inactive)
MOLT-4
  GI50: > 100 µM (inactive)
T47D
  GI50: > 100 µM (inactive)
NCI-H23
  GI50: > 100 µM (inactive)
SF-539
  GI50: > 100 µM (inactive)
NCI-H460
  GI50: > 100 µM (inactive)
786-0
  GI50: > 100 µM (inactive)
OVCAR-3
  GI50: > 100 µM (inactive)
PC-3
  GI50: > 100 µM (inactive)
SN12C
  GI50: > 100 µM (inactive)
SNB-75
  GI50: > 100 µM (inactive)
UACC-62
  GI50: > 100 µM (inactive)
SK-OV-3
  GI50: > 100 µM (inactive)
M14
  GI50: > 100 µM (inactive)
NCI-H226
  GI50: > 100 µM (inactive)
KM12
  GI50: > 100 µM (inactive)
OVCAR-8
  GI50: > 100 µM (inactive)
UACC-257
  GI50: > 100 µM (inactive)
EKVX
  GI50: > 100 µM (inactive)

## CC(=O)/N=C1/N(/C=C2\C(=O)Oc3ccccc3C2=O)C(=O)/C(=C/c2ccccc2Cl)N1C
SNB-19
  GI50: 95.3 µM (inactive)
MOLT-4
  GI50: > 100 µM (inactive)
T47D
  GI50: > 100 µM (inactive)
NCI-H23
  GI50: > 100 µM (inactive)
SF-539
  GI50: > 100 µM (inactive)
NCI-H460
  GI50: > 100 µM (inactive)
786-0
  GI50: > 100 µM (inactive)
PC-3
  GI50: > 100 µM (inactive)
SN12C
  GI50: > 100 µM (inactive)
SNB-75
  GI50: 22.2 µM (inactive)
UACC-62
  GI50: > 100 µM (inactive)
A549
  GI50: > 100 µM (inactive)
SK-OV-3
  GI50: > 100 µM (inactive)
M14
  GI50: > 100 µM (inactive)
NCI-H226
  GI50: > 100 µM (inactive)
KM12
  GI50: > 100 µM (inactive)
OVCAR-8
  GI50: > 100 µM (inactive)
UACC-257
  GI50: > 100 µM (inactive)
EKVX
  GI50: 84.9 µM (inactive)

## O=C(CN1C(=O)c2ccccc2C1=O)OCC1CCCN2CCCCC12 (stereo not given)
SNB-19
  GI50: > 100 µM (inactive)
MOLT-4
  GI50: > 100 µM (inactive)
T47D
  GI50: > 100 µM (inactive)
NCI-H23
  GI50: > 100 µM (inactive)
SF-539
  GI50: > 100 µM (inactive)
NCI-H460
  GI50: > 100 µM (inactive)
786-0
  GI50: > 100 µM (inactive)
PC-3
  GI50: > 100 µM (inactive)
SN12C
  GI50: > 100 µM (inactive)
SNB-75
  GI50: > 100 µM (inactive)
UACC-62
  GI50: > 100 µM (inactive)
A549
  GI50: > 100 µM (inactive)
SK-OV-3
  GI50: > 100 µM (inactive)
NCI-H226
  GI50: > 100 µM (inactive)
KM12
  GI50: > 100 µM (inactive)
OVCAR-8
  GI50: > 100 µM (inactive)
UACC-257
  GI50: > 100 µM (inactive)
EKVX
  GI50: > 100 µM (inactive)

## O=[N+]([O-])/C=C/COCc1cc2c(cc1Br)OCO2
MOLT-4
  GI50: 48.3 µM (inactive)
T47D
  GI50: 16.7 µM (inactive)
SF-539
  GI50: 27.9 µM (inactive)
NCI-H460
  GI50: 29.9 µM (inactive)
786-0
  GI50: 13.8 µM (inactive)
OVCAR-3
  GI50: 16.4 µM (inactive)
PC-3
  GI50: 13 µM (inactive)
SN12C
  GI50: 18.6 µM (inactive)
SNB-75
  GI50: 17.4 µM (inactive)
UACC-62
  GI50: 16.5 µM (inactive)
A549
  GI50: 21.7 µM (inactive)
SK-OV-3
  GI50: 43.1 µM (inactive)
M14
  GI50: 16.3 µM (inactive)
KM12
  GI50: 19 µM (inactive)
OVCAR-8
  GI50: 31.9 µM (inactive)
UACC-257
  GI50: 17.3 µM (inactive)
EKVX
  GI50: 20.1 µM (inactive)

## COc1cc2c[n+](C)c3c4cc(OC)c(OC)cc4c(OC)cc3c2cc1OC
SNB-19
  GI50: 1.03 µM (active)
T47D
  GI50: 1.85 µM (inactive)
NCI-H23
  GI50: 5.58 µM (inactive)
SF-539
  GI50: 1.87 µM (inactive)
NCI-H460
  GI50: 17.4 µM (inactive)
786-0
  GI50: 5.43 µM (inactive)
OVCAR-3
  GI50: 2.34 µM (inactive)
PC-3
  GI50: 12.2 µM (inactive)
SN12C
  GI50: 0.188 µM (active)
SNB-75
  GI50: 7.91 µM (inactive)
UACC-62
  GI50: 6.27 µM (inactive)
A549
  GI50: > 65.3 µM (inactive)
SK-OV-3
  GI50: 42.2 µM (inactive)
M14
  GI50: 30.5 µM (inactive)
NCI-H226
  GI50: 1.36 µM (inactive)
KM12
  GI50: 5.27 µM (inactive)
OVCAR-8
  GI50: 0.371 µM (active)
UACC-257
  GI50: 2.86 µM (inactive)
EKVX
  GI50: > 74.1 µM (inactive)

## NNC(=O)CC(=O)Nc1ccc(C(=O)O)cc1
SNB-19
  GI50: > 100 µM (inactive)
MOLT-4
  GI50: > 100 µM (inactive)
T47D
  GI50: > 100 µM (inactive)
NCI-H23
  GI50: > 100 µM (inactive)
SF-539
  GI50: > 100 µM (inactive)
NCI-H460
  GI50: > 100 µM (inactive)
786-0
  GI50: > 100 µM (inactive)
OVCAR-3
  GI50: > 100 µM (inactive)
PC-3
  GI50: > 100 µM (inactive)
SN12C
  GI50: > 100 µM (inactive)
SNB-75
  GI50: > 100 µM (inactive)
UACC-62
  GI50: > 100 µM (inactive)
A549
  GI50: > 100 µM (inactive)
SK-OV-3
  GI50: > 100 µM (inactive)
NCI-H226
  GI50: > 100 µM (inactive)
KM12
  GI50: > 100 µM (inactive)
OVCAR-8
  GI50: > 100 µM (inactive)
UACC-257
  GI50: > 100 µM (inactive)
EKVX
  GI50: > 100 µM (inactive)
